# Assay results reported in PubChem BioAssay (NCI).
#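 48-hour exposure; five concentrations; linearly interpolated endpoints. Here, GI50 denotes the concentration required for 50% inhibition of growth. TGI denotes the concentration required for complete inhibition of growth.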
# Key:
# Experiment in all cases: NCI-60 cell line screen, 48 h
# NCI-H23 lung = test system: NCI-H23 lung
# KM12 colon = test system: KM12 colon
# NCI-H522 lung = test system: NCI-H522 lung
# DU-145 prostate = test system: DU-145 prostate
# UACC-62 melanoma = test system: UACC-62 melanoma
# HT29 colon = test system: HT29 colon
# HL-60(TB) leukemia = test system: HL-60(TB) leukemia
# T-47D breast = test system: T-47D breast
# SF-268 CNS = test system: SF-268 CNS
# SK-MEL-2 melanoma = test system: SK-MEL-2 melanoma
# OVCAR-5 ovarian = test system: OVCAR-5 ovarian
# SK-MEL-5 melanoma = test system: SK-MEL-5 melanoma
# PC-3 prostate = test system: PC-3 prostate
# NCI/ADR-RES ovarian = test system: NCI/ADR-RES ovarian
# RPMI-8226 leukemia = test system: RPMI-8226 leukemia
# SW-620 colon = test system: SW-620 colon
# K-562 leukemia = test system: K-562 leukemia
# SF-539 CNS = test system: SF-539 CNS
# NCI-H226 lung = test system: NCI-H226 lung
# SK-MEL-28 melanoma = test system: SK-MEL-28 melanoma
# HS 578T breast = test system: HS 578T breast
# HOP-92 NSCLC = test system: HOP-92 NSCLC
# UO-31 renal = test system: UO-31 renal
# LOX IMVI melanoma = test system: LOX IMVI melanoma
# RXF 393 renal = test system: RXF 393 renal
# A498 renal = test system: A498 renal
# NCI-H460 lung = test system: NCI-H460 lung
# OVCAR-4 ovarian = test system: OVCAR-4 ovarian
# U251 CNS = test system: U251 CNS
# TK-10 renal = test system: TK-10 renal
# MALME-3M melanoma = test system: MALME-3M melanoma
# SK-OV-3 ovarian = test system: SK-OV-3 ovarian
# SF-295 CNS = test system: SF-295 CNS
# EKVX NSCLC = test system: EKVX NSCLC
# BT-549 breast = test system: BT-549 breast
# HOP-62 NSCLC = test system: HOP-62 NSCLC
# COLO 205 colon = test system: COLO 205 colon
# HCT-116 colon = test system: HCT-116 colon
# SN12C renal = test system: SN12C renal
# A549 NSCLC = test system: A549 NSCLC
# MCF7 breast = test system: MCF7 breast
# MOLT-4 leukemia = test system: MOLT-4 leukemia
# MDA-MB-231 breast = test system: MDA-MB-231 breast
# HCT-15 colon = test system: HCT-15 colon
# SNB-75 CNS = test system: SNB-75 CNS
# MDA-MB-435 = test system: MDA-MB-435
# HCC-2998 colon = test system: HCC-2998 colon
# OVCAR-3 ovarian = test system: OVCAR-3 ovarian
# CAKI-1 renal = test system: CAKI-1 renal
# CCRF-CEM leukemia = test system: CCRF-CEM leukemia
# SR leukemia = test system: SR leukemia
# SNB-19 CNS = test system: SNB-19 CNS
# 786-0 renal = test system: 786-0 renal
# IGROV1 ovarian = test system: IGROV1 ovarian
# OVCAR-8 ovarian = test system: OVCAR-8 ovarian
# ACHN renal = test system: ACHN renal
smiles,measurement,setting,value
CCOc1ccccc1C(=O)/C=C/c1cc2ccccc2[nH]c1=O,GI50,NCI-H23 lung,72.9 nM
same,TGI,NCI-H23 lung,1770 nM
same,GI50,KM12 colon,35.5 nM
same,TGI,KM12 colon,570 nM
same,GI50,NCI-H522 lung,30.8 nM
same,TGI,NCI-H522 lung,1830 nM
same,GI50,DU-145 prostate,38 nM
same,TGI,DU-145 prostate,905 nM
same,GI50,UACC-62 melanoma,42.3 nM
same,TGI,UACC-62 melanoma,1930 nM
same,GI50,HT29 colon,23.2 nM
same,TGI,HT29 colon,2060 nM
same,GI50,HL-60(TB) leukemia,13 nM
same,TGI,HL-60(TB) leukemia,59 nM
same,GI50,T-47D breast,271 nM
same,TGI,T-47D breast,19600 nM
same,GI50,SF-268 CNS,86 nM
same,TGI,SF-268 CNS,1850 nM
same,GI50,SK-MEL-2 melanoma,65.7 nM
same,TGI,SK-MEL-2 melanoma,3020 nM
same,GI50,OVCAR-5 ovarian,193 nM
same,TGI,OVCAR-5 ovarian,1440 nM
same,GI50,SK-MEL-5 melanoma,43.1 nM
same,TGI,SK-MEL-5 melanoma,1310 nM
same,GI50,PC-3 prostate,41.3 nM
same,TGI,PC-3 prostate,2760 nM
same,GI50,NCI/ADR-RES ovarian,23.4 nM
same,TGI,NCI/ADR-RES ovarian,14400 nM
same,GI50,RPMI-8226 leukemia,28.4 nM
same,TGI,RPMI-8226 leukemia,991 nM
same,GI50,SW-620 colon,19.4 nM
same,TGI,SW-620 colon,1160 nM
same,GI50,K-562 leukemia,< 10 nM
same,TGI,K-562 leukemia,> 100000 nM
same,GI50,SF-539 CNS,29.4 nM
same,TGI,SF-539 CNS,129 nM
same,GI50,NCI-H226 lung,202 nM
same,TGI,NCI-H226 lung,6490 nM
same,GI50,SK-MEL-28 melanoma,324 nM
same,TGI,SK-MEL-28 melanoma,2160 nM
same,GI50,HS 578T breast,22.2 nM
same,TGI,HS 578T breast,93.3 nM
same,GI50,HOP-92 NSCLC,77.8 nM
same,TGI,HOP-92 NSCLC,1410 nM
same,GI50,UO-31 renal,61.1 nM
same,TGI,UO-31 renal,1590 nM
same,GI50,LOX IMVI melanoma,44.3 nM
same,TGI,LOX IMVI melanoma,1060 nM
same,GI50,RXF 393 renal,32.2 nM
same,TGI,RXF 393 renal,340 nM
same,GI50,A498 renal,14.7 nM
same,TGI,A498 renal,81.3 nM
same,GI50,NCI-H460 lung,33.2 nM
same,TGI,NCI-H460 lung,349 nM
same,GI50,OVCAR-4 ovarian,144 nM
same,TGI,OVCAR-4 ovarian,6240 nM
same,GI50,U251 CNS,39.7 nM
same,TGI,U251 CNS,1330 nM
same,GI50,TK-10 renal,438 nM
same,TGI,TK-10 renal,2930 nM
same,GI50,MALME-3M melanoma,23.8 nM
same,TGI,MALME-3M melanoma,1880 nM
same,GI50,SK-OV-3 ovarian,106 nM
same,TGI,SK-OV-3 ovarian,15200 nM
same,GI50,SF-295 CNS,31.1 nM
same,TGI,SF-295 CNS,1280 nM
same,GI50,EKVX NSCLC,172 nM
same,TGI,EKVX NSCLC,1990 nM
same,GI50,BT-549 breast,72 nM
same,TGI,BT-549 breast,1410 nM
same,GI50,HOP-62 NSCLC,67.8 nM
same,TGI,HOP-62 NSCLC,3470 nM
same,GI50,COLO 205 colon,37.1 nM
same,TGI,COLO 205 colon,643 nM
same,GI50,HCT-116 colon,< 22.9 nM
same,TGI,HCT-116 colon,1170 nM
same,GI50,SN12C renal,96.1 nM
same,TGI,SN12C renal,1630 nM
same,GI50,A549 NSCLC,74.1 nM
same,TGI,A549 NSCLC,12400 nM
same,GI50,MCF7 breast,35.6 nM
same,TGI,MCF7 breast,1410 nM
same,GI50,MOLT-4 leukemia,38.5 nM
same,TGI,MOLT-4 leukemia,4430 nM
same,GI50,MDA-MB-231 breast,77.4 nM
same,TGI,MDA-MB-231 breast,2010 nM
same,GI50,HCT-15 colon,33.9 nM
same,TGI,HCT-15 colon,1220 nM
same,GI50,SNB-75 CNS,20.9 nM
same,TGI,SNB-75 CNS,76.6 nM
same,GI50,MDA-MB-435,< 10 nM
same,TGI,MDA-MB-435,13.9 nM
same,GI50,HCC-2998 colon,126 nM
same,TGI,HCC-2998 colon,654 nM
same,GI50,OVCAR-3 ovarian,24.5 nM
same,TGI,OVCAR-3 ovarian,108 nM
same,GI50,CAKI-1 renal,25.8 nM
same,TGI,CAKI-1 renal,1490 nM
same,GI50,CCRF-CEM leukemia,29 nM
same,TGI,CCRF-CEM leukemia,> 100000 nM
same,GI50,SR leukemia,< 10 nM
same,TGI,SR leukemia,> 100000 nM
same,GI50,SNB-19 CNS,45.9 nM
same,TGI,SNB-19 CNS,1340 nM
same,GI50,786-0 renal,39.9 nM
same,TGI,786-0 renal,1330 nM
same,GI50,IGROV1 ovarian,56.4 nM
same,TGI,IGROV1 ovarian,1860 nM
same,GI50,OVCAR-8 ovarian,50.7 nM
same,TGI,OVCAR-8 ovarian,2080 nM
same,GI50,ACHN renal,60.3 nM
same,TGI,ACHN renal,1730 nM
